From ChEMBL document CHEMBL6153154, “Novel Carbocyclic Phenylpyrrolidinone Urea Compounds as FPR2 Agonists for Treating Atherosclerosis and Heart Failure” (ACS Med Chem Lett, 2025)

Target: T1, N-formyl peptide receptor 2 (Homo sapiens, UniProt P25090)
T1 sequence (P25090 whole entry): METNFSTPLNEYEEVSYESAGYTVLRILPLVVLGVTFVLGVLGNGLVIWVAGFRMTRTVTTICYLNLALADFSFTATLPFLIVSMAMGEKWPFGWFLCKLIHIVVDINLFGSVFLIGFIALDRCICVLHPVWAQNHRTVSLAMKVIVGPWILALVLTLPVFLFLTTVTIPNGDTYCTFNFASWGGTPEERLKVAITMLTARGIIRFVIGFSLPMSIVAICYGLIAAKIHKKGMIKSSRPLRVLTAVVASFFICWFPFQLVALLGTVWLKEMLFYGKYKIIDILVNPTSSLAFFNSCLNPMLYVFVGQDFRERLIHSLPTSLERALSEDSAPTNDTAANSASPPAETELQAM
Experiment: Agonist activity at human FPR2 expressed in CHO cells assessed as forskolin-induced cAMP level incubated for 30 mins in presence of IBMX by HTRF HiRange cAMP assay
Format: functional, cell-based

| Structure (SMILES) | EC50 [nM] |
| --- | --- |
| CC(=O)NCC1(c2ccc(N3CC[C@@H](NC(=O)Nc4ccc(Cl)cc4F)C3=O)c(F)c2F)CC1 | 0.41 |
| CP(C)(=O)CC1(c2ccc(N3CC[C@@H](NC(=O)Nc4ccc(C(F)(F)F)cc4F)C3=O)c(F)c2F)CCCC1 | 0.48 |
| O=C(Nc1ccc(C(F)(F)F)cc1F)N[C@@H]1CCN(c2ccc(C3(CN4CCCC4=O)CC3)c(F)c2F)C1=O | 0.23 |
| CC(C)S(=O)(=O)CC1(c2ccc(N3CC[C@@H](NC(=O)Nc4ccc(Cl)cc4F)C3=O)c(F)c2F)CC1 | 0.49 |
| O=C(Nc1ccc(Cl)cc1F)N[C@@H]1CCN(c2ccc(C3(CN4CCCC4=O)CC3)c(F)c2F)C1=O | 0.32 |
| CC(=O)N(C)CC1(c2ccc(N3CC[C@@H](NC(=O)Nc4ccc(C(F)(F)F)cc4F)C3=O)c(F)c2F)CC1 | 0.1 |
